Measurements taken from publication PMC2913692 (The European journal of neuroscience, 2010).
Like-named read-outs stand apart in the source and are kept apart here. Values belong to the molecule of their own block, whether it stands above or below them.

Assays:
[1] = system: N-methyl-D-aspartate receptor (NMDAR), NR1 subunit coagonist site; assay: whole-cell voltage clamp; assay type: cell-based, Ambystoma tigrinum
[2] = system: N-methyl-D-aspartate receptor (NMDAR), NR1 subunit coagonist site
[3] = system: N-methyl-D-aspartate receptor (NMDAR), NR1 subunit coagonist site; assay: whole-cell voltage clamp of retinal ganglion cells; design: species or system Ambystoma tigrinum

Compound: O=C(O)c1cc(O)c2ccc(Cl)cc2n1 [7CKA, 7-chlorokynurenic acid]
- % of control at 25 μM [1]: 5.3 ± 1.0

Compound: NCC(=O)O [glycine]
- EC50 [2]: 118 ± 48.1 µM

- EC50 [3]: 3.48 ± 1.05 µM
Compound: N[C@H](CO)C(=O)O [D-serine]
